Experimental data published in US20050215435A1, “Phenylalanine derivatives as herbicides” (priority 2002, published 2005).

Columns and labels:
Experiment in all cases: Greenhouse herbicidal action, post-emergence
Format in all cases: in vivo
Setaria italica = test system: Setaria italica
Text: (§1) The seeds of the test plants were sown separately for each species. For the post-emergence treatment, the test plants were first grown to a height of from 3 to 15 cm, depending on the plant habit, and only then treated with the active compounds which had been suspended or emulsified in water. The test plants were for this purpose either sown directly and grown in the same containers, or they were first grown separately as seedlings and transplanted into the test containers a few days prior to treatment. […] (active substance). Depending on the species, the plants were kept at 10-25° C. or 20-35° C. The test period extended over from 2 to 4 weeks. During this time, the plants were tended, and their response to the individual treatments was evaluated. Evaluation was carried out using a scale from 0 to 100. 100 means no emergence of the plants, or complete destruction of at least the aerial parts and 0 means no damage, or normal course of growth. The plants used in the greenhouse experiments were of the following species: [table]

Sinapis alba = test system: Sinapis alba
Text: as §1

Abutilon theophrasti = test system: Abutilon theophrasti
Text: as §1

Chenopodium album = settings: 1.0 kg of a.s./ha
Text: as §1

## CNC(=O)C(NC(=O)c1ccccc1C(F)(F)F)C(C)c1ccccc1F (single isomer, unassigned) [Compound I-32]
Setaria italica; 0.095 kg of a.s./ha
  control of Setaria italica: very good control
Sinapis alba; 0.095 kg of a.s./ha
  control of Sinapis alba: very good control

## CNC(=O)[C@H](Cc1ccccc1C)NC(=O)c1ccccc1C(F)(F)F [Compound I-19]
Abutilon theophrasti; 0.5 kg of a.s./ha
  control of Abutilon theophrasti: very good control
Setaria italica; 0.5 kg of a.s./ha
  control of Setaria italica: very good control

## CNC(=O)[C@H](Cc1cccc(F)c1)NC(=O)c1cccc(F)c1C(F)(F)F [Compound I-24]
Abutilon theophrasti; 0.5 kg of a.s./ha
  control of Abutilon theophrasti: very good control
Sinapis alba; 0.5 kg of a.s./ha
  control of Sinapis alba: very good control

## CNC(=O)[C@H](Cc1cccc(F)c1)NC(=O)c1cc(F)ccc1C(F)(F)F [Compound I-25]
Abutilon theophrasti; 0.5 kg of a.s./ha
  control of Abutilon theophrasti: very good control
Setaria italica; 0.5 kg of a.s./ha
  control of Setaria italica: very good control
Sinapis alba; 0.5 kg of a.s./ha
  control of Sinapis alba: very good control

## CNC(=O)[C@H](Cc1ccccc1C)NC(=O)c1ccc(Cl)c(C(F)F)c1Cl [Compound I-49]
Abutilon theophrasti; 1.91 kg of a.s./ha
  control of Abutilon theophrasti: very good control
Abutilon theophrasti; 3.0 kg of a.s./ha
  control of Abutilon theophrasti: very good control
Setaria italica; 1.91 kg of a.s./ha
  control of Setaria italica: very good control
Setaria italica; 3.0 kg of a.s./ha
  control of Setaria italica: very good control
Sinapis alba; 1.91 kg of a.s./ha
  control of Sinapis alba: very good control
Sinapis alba; 3.0 kg of a.s./ha
  control of Sinapis alba: very good control

## CNC(=O)[C@H](Cc1ccccc1C)NC(=O)c1ccc(F)cc1C(F)(F)F [Compound I-51]
Chenopodium album
  control of Chenopodium album: very good control
Abutilon theophrasti; 1.0 kg of a.s./ha
  control of Abutilon theophrasti: very good control

## CNC(=O)[C@H](Cc1ccccc1C)NC(=O)c1cccc(F)c1C(F)(F)F [Compound I-53]
Abutilon theophrasti; 0.5 kg of a.s./ha
  control of Abutilon theophrasti: very good control
Setaria italica; 0.5 kg of a.s./ha
  control of Setaria italica: very good control
Sinapis alba; 0.5 kg of a.s./ha
  control of Sinapis alba: very good control

## CNC(=O)C(NC(=O)c1ccc(F)cc1C(F)(F)F)C(C)c1ccccc1F (stereo not drawn) [II-7]
Chenopodium album
  control of Chenopodium album: very good control
Abutilon theophrasti; 1.0 kg of a.s./ha
  control of Abutilon theophrasti: very good control

## CNC(=O)C(Cc1ccccc1)NC(=O)c1ccc(F)cc1C(F)(F)F (stereo not drawn) [II-91]
Abutilon theophrasti; 2.0 kg of a.s./ha
  control of Abutilon theophrasti: very good control
Sinapis alba; 2.0 kg of a.s./ha
  control of Sinapis alba: very good control

## CNC(=O)C(Cc1ccccc1C)NC(=O)c1ccccc1S(C)(=O)=O (stereo not drawn) [II-111]
Abutilon theophrasti; 1.0 kg of a.s./ha
  control of Abutilon theophrasti: very good control
Setaria italica; 1.0 kg of a.s./ha
  control of Setaria italica: very good control
Sinapis alba; 1.0 kg of a.s./ha
  control of Sinapis alba: very good control

## Nα-(2-trifluoromethyl-4-fluorobenzoyl)-2-(1-methyl-1-(2-fluorophenyl))glycine-N-methylamide [II-15]
Abutilon theophrasti; 0.5 kg of a.s./ha
  control of Abutilon theophrasti: very good control
Setaria italica; 0.5 kg of a.s./ha
  control of Setaria italica: very good control
Sinapis alba; 0.5 kg of a.s./ha
  control of Sinapis alba: very good control
